Results as given in PubChem BioAssay AID743267 (Broad Institute, 2014).

tested on: human bronchial epithelial cells, CFTR corrector, plate reader; assay: CFTR ΔF508 corrector activity in bronchial cells, dose response, human bronchial epithelial cells, plate reader, cherry-pick, two tests (AID 743267); conditions: measured here: test 1 replicate run

Compound	AC50 [µM]
C[C@@H]1CN([C@@H](C)CO)C(=O)Cc2cc(NC(=O)Nc3cccc4ccccc34)ccc2O[C@@H]1CN(C)Cc1ccc(Cl)c(Cl)c1	2.12
COC(=O)C[C@@H]1CC[C@@H]2[C@H](COc3ccc(NC(=O)c4cc(C)on4)cc3C(=O)N2C)O1	3.67
C[C@H](CO)N1C[C@H](C)[C@H](CN(C)C(=O)NC2CCCCC2)Oc2cc(C#Cc3ccc(F)cc3)ccc2S1(=O)=O	7.62
C[C@@H]1CN([C@H](C)CO)S(=O)(=O)c2ccc(-c3ccccc3)cc2O[C@H]1CN(C)Cc1ccccn1	16
O=C(C1CCCC1)N1CC(=O)N2[C@H](CO)[C@@H](c3ccc(-c4ccccc4F)cc3)[C@@H]2C1	4.47
O=C1CN(S(=O)(=O)Cc2ccccc2)C[C@@H]2[C@@H](c3ccc(C#Cc4cccc(F)c4)cc3)[C@H](CO)N12	16
C[C@H]1CN([C@@H](C)CO)S(=O)(=O)c2ccc(-c3ccc(C#N)cc3)cc2O[C@@H]1CN(C)Cc1ccccn1	3.39

same assay, conditions: measured here: test 2 replicate run

Compound	AC50 [µM]
COc1ccc(OC)c(N/C(N)=N/c2nc(C)cc(C)n2)c1	39.4
O=C(O)CCCCCCCCc1cn(Cc2ccc(C(=O)c3ccccc3)cc2)nn1	2.17
COc1cc(OC)c2c(-c3cccc(-c4cccc(N)c4)c3)cc(=O)oc2c1	3.43
O=C1/C(=C\c2cc(Cl)c(O)c(Cl)c2)SC(=S)N1Cc1ccccc1	3.15
COc1cccc2c1C(=O)c1c(O)c3c(c(O)c1C2=O)CC(O)(C(C)=O)CC3OC1CC(N(C)C)C(O)C(C)O1 (stereo not given)	14.8
COc1cccc(/C=N/Nc2ncnc(Cl)c2N)c1O	12.8
O=C(NC(=S)Nc1ccc(-c2ccccc2)cc1)c1ccccc1	> 50
Cc1cc(NCc2ccccn2)n2nc(C)c(-c3ccccc3)c2n1	4.77
Cc1cccc(Nc2nc(N)nc(-c3oc4ccccc4c3C)n2)c1	6.65
Cc1c(C(=O)N/N=C/c2c(O)ccc3ccccc23)nnn1-c1nonc1N	0.462
Cc1cccc(N2CCN(C(=O)c3ccc4[nH]c(C)c(C)c4c3)CC2)c1C	1.85
CC[C@H]1CN2CCC1C[C@H]2[C@H](O)c1ccnc2ccc(OC)cc12 (stereo not given in full)	12.9
COC(=O)c1ccc(S(=O)(=O)N2CCc3ccccc32)cc1	19.1
COc1cccc2c1C(=O)c1c(O)c3c(c(O)c1C2=O)C[C@](O)(C(C)=O)C[C@H]3O[C@@H]1C[C@@H](N)[C@@H](O)[C@@H](C)O1	7.44
CC1CCN(C(=O)C2COc3ccccc3O2)CC1 (stereo not given)	35.1
COC1C(C)OC(OC2CC(C)(O)Cc3cc4c(c(O)c32)C(=O)c2c(O)cc3c(c2C4=O)OC2OC3(C)C(O)C(N(C)C)C2O)C(OC)C1(C)OC (stereo not given)	14.3
CN1/C(=C\C=C2/SC(=S)N(CC(=O)O)C2=O)C(C)(C)c2ccccc21	16
C#C[C@]1(O)CC[C@H]2[C@@H]3CCc4cc(OC5CCCC5)ccc4[C@H]3CC[C@@]21C	3.31
CC1OC(OC2CC(O)C3(CO)C4C(O)CC5(C)C(C6=CC(=O)OC6)CCC5(O)C4CCC3(O)C2)C(O)C(O)C1O (stereo not given)	3.38
O=C1c2cccc3c(N4CCCCC4)ccc(c23)C(=O)N1c1cccc(O)c1	24.3
C=CC(C)(C)c1[nH]cnc1/C=C1\NC(=O)C(C(C)C)NC1=O (stereo not given)	40.2
COc1cc(SC)ccc1C(=O)N1CCN(c2ccccc2OC)CC1	6.62
CN(CCOc1ccc(Cl)cc1)C(=O)c1cccc(S(=O)(=O)N2CCN(c3ccccc3)CC2)c1	16
CCN1/C(=C\c2ccc3cc(C)ccc3[n+]2CC)Sc2cc(C)c(C)cc21	9.9
CCCCC(=NCCc1c(C)[nH]c2ccccc12)C1=C(O)CC(c2ccccc2)CC1=O (stereo not given)	3.92

Compound	AC50 [µM]
COc1ccc(NCC(=O)n2c(C)c(C)c3ccccc32)cc1	5.59
O=C(CN1C(=O)NC2(CCCCCCC2)C1=O)Nc1ccc(Br)cc1	1.13
COc1ccc(NC(=O)c2cc(S(=O)(=O)N3CCOCC3)ccc2C)cc1S(=O)(=O)N1CCOCC1	> 50
COc1cc2c(cc1OC)C(c1cccs1)N(C(=O)c1cccnc1)CC2 (stereo not given)	4.9
CN1/C(=C\C=C2/SC(=S)NC2=O)C(C)(C)c2ccccc21	18.5
COc1cc(/C=C2/SC(=S)N(Cc3ccccc3)C2=O)cc(Cl)c1O	12.1
COc1ccccc1Cc1c(-c2ccc(Cl)cc2)nc2ccc(Br)cn12	8.16
COc1ccccc1NC(=O)C(=O)NCC(c1ccco1)N1CCc2ccccc21 (stereo not given)	> 50
COc1cc(C#Cc2ccc3cc(CCCO)oc(=O)c3c2)cc(OC)c1	10.3
CCOc1ccc(-c2cc(C(=O)N3CCN(c4ccccn4)CC3)c3ccccc3n2)cc1	16
COc1cc(OC)c2c(-c3cccc(-c4ccc(OC)c(OC)c4)c3)cc(=O)oc2c1	0.594
O=c1ccc2c(-c3ccccc3)c3ccc(O)cc3oc-2c1	2.2
O=c1c2ccccc2oc2cc(-c3ccc4[nH]ccc4c3)ccc12	1.94
COc1ccc(N(C)S(=O)(=O)c2cccc(C(=O)NCC3CCCCC3)c2)cc1	48.2
O=C(CCc1ccccc1)NCC(c1ccco1)N1CCc2ccccc21 (stereo not given)	4.6
COc1ccc2sc3cccc(NCCN(C)C)c3c(=O)c2c1	8.47
O=C1NC(=O)C(=Cc2ccc(N3CCOCC3)o2)C(=O)N1	> 50
N#Cc1nc(NCC(F)F)nc(Nc2cc(F)cc(F)c2)n1	16
COC(=O)c1[nH]c2c(c1C)C(=O)CC(c1cccc(OC)c1)C2 (stereo not given)	0.965
Cc1cccc(OCCNC(=O)c2ccc(Cl)c(S(=O)(=O)NCc3cccnc3)c2)c1	1.97
CCN(CC)C1=CC2=CC(=C(C#N)C#N)CCC2CC1 (stereo not given)	0.948
CCN(C(=O)CSc1nc2ccccc2c(=O)n1-c1ccccc1F)C1CCS(=O)(=O)C1 (stereo not given)	0.253
Clc1ccc(SCc2cc(N3CCOCC3)nc(-c3ccccn3)n2)cc1	4.5
CC(=O)Nc1cccc(-c2ccnc3c2CC(C)(C(=O)Nc2ccc4c(c2)OCO4)O3)c1 (stereo not given)	0.973
CNC(=O)C1CC(=O)N(c2ccc(OCC(=O)Nc3ccccc3)cc2)C1 (stereo not given)	> 50

Compound	AC50 [µM]
O=C1CCC(CCc2nc3ccccc3[nH]2)(c2ccccc2)C(=O)N1 (stereo not given)	36.3
COc1cc(/C=C2\SC(=S)N(NC(=O)c3ccncc3)C2=O)ccc1O	13.2
CCOc1cc(/C=N/NC(=O)N/N=C/c2ccc(O)c(OCC)c2)ccc1O	4.92
CCc1cc(-c2nnn(CCC3COCCO3)c2CC)ccc1-c1cn(Cc2ccc3ccccc3c2)nn1 (stereo not given)	0.6
CC1(C)OC(c2ccccc2)=C/C(=C/C=C2C(=O)NC(=S)NC2=O)O1	16.9
CN(CC(=O)NCCc1ccc(S(N)(=O)=O)cc1)CC(=O)Nc1ccc(Cl)c(C(F)(F)F)c1	27.9
O=C(O)c1ccccc1-c1c2cc(I)c(=O)c(I)c-2oc2c(I)c(O)c(I)cc12	16.7
CC(=O)Oc1ccc(N2C(=O)c3cccc4c([N+](=O)[O-])ccc(c34)C2=O)cc1	20.6
N#CC1=C(N)Oc2cc(N)ccc2C1c1cccc(F)c1 (stereo not given)	3.15
NC(=S)NN=Cc1nccc2c(N)cccc12	3.21
COc1ccc(-c2cnc3c(NC=O)cc(-c4ccccc4)cn23)cc1OC	0.793
COc1ccccc1N1CCN(C(=O)c2ccc(-c3ccc(Cl)cc3)o2)CC1	6.64
CCCCNC(=O)C(=O)Nc1ccc2c(c1)N(S(=O)(=O)c1cccs1)CCC2	1.89
CCCCn1cnc2c(c(CC#N)nn2-c2ccccc2)c1=N	> 50
O=C(NCCCN1CCOCC1)c1sc2cc(Cl)ccc2c1Cl	1.76
CCN(c1cccc(C)c1)S(=O)(=O)c1ccc(-c2cc(C)no2)s1	5.94
COC(=O)c1cn(C(=O)c2ccc(C)cc2C)c2ccccc12	7.53
N#Cc1c(-c2ccc(F)cc2)c(-c2ccc(F)cc2)nn(CCO)c1=O	2.57
Cc1ncc(CO)c(/C=N/Nc2ccc(C(F)(F)F)cn2)c1O	1.18
O=c1[nH]c(CN2CCN(c3ccc(O)cc3)CC2)nc2scc(-c3ccc(Cl)cc3)c12	6.45
CC[n+]1c(-c2ccccc2)c2cc(N)ccc2c2ccc(N)cc21	7.74
COc1ccccc1/C=N/NC(=O)c1cc2c(OC)c(OC)ccc2[nH]1	0.802
C=CCCC(=O)Nc1nc(C)c(-c2csc(Nc3cc(OC)ccc3OC)n2)s1	10.3
COc1ccc(C(=O)c2ccc(N(C)C)cc2)c(OC)c1	3.82
CCOC(=O)CSC1=C(C#N)C(c2ccc(C)s2)CC(=O)N1 (stereo not given)	5.6

Compound	AC50 [µM]
COC(=O)c1cn(NC(=O)c2cc([N+](=O)[O-])ccc2F)c(=O)c2ccccc12	1.21
CC(C)(C)c1ccc(OCC(=O)Nc2ccc3c4c(cccc24)C(=O)NC3=O)cc1	18.4
Cc1nc(/N=C(\N)NC(=O)NC2CCCCC2)nc2ccccc12	2.76
COc1cc(OC)c2c(-c3cccc(-c4sccc4C(C)=O)c3)cc(=O)oc2c1	12.2
O=S(=O)(c1ccc(Br)cc1)N1CCCc2ccccc21	> 50
CC1=Nc2cc(C(=O)NCC3CCCO3)ccc2Sc2ccc(Br)cc21 (stereo not given)	9.45
CCN(CC)C(=O)c1oc2ccc(S(=O)(=O)N3CC(C)CC(C)C3)cc2c1C (stereo not given)	10.5
NS(=O)(=O)c1ccc(CNc2ccc3ccccc3n2)cc1	> 50
COC(=O)c1cc(C(=O)N2CCN(c3cccc(Cl)c3)CC2)cc([N+](=O)[O-])c1	0.383
Cc1cccc(N2CCN(C(=O)c3c(-c4ccccc4)noc3C)CC2)c1C	2.59
COc1ccc(/C=N/NC(=O)c2cccnc2)cc1CSc1ccccn1	28.2
CCOC(=O)c1ccc(-c2c(-c3cc(OC)c(OC)c(OC)c3)noc2C)cc1F	1.2
Cn1cccc1/C=C1\SC(=Nc2cccc(O)c2)NC1=O	13.5
COc1ccc(/C=C2/CCCc3ccccc3C2=O)cc1	1.92
O=C(c1ccc(Br)cc1)c1cc([N+](=O)[O-])ccc1N1CCOCC1	1.69
CCCn1c(CN2CCN(C(=O)OCC)CC2)nc2cc(NC(=O)CC)ccc21	4.34
CC(=Nc1ccccc1O)c1sc2ccccc2c1O	11.8
CCN1CCN(c2cc(C)c3cc(NC(=O)c4ccc(OC)c(OC)c4)ccc3n2)CC1	1.61
COc1cc(NC(=O)c2csc(N)n2)cc(C(=O)Nc2cccc(C(F)(F)F)c2)c1	16
Cc1cc(N/N=C/c2ccccc2O)c2ccccc2n1	21.1
COc1ccc2c(c1)/C(=C/c1cc(OC)c(OC)c(OC)c1)C(=O)N2	2.04
COCCNc1nc(Nc2ccc(C)cc2C)c2sccc2n1	2.34
Cc1ccc(S(=O)(=O)N2CCCCC2CCNC(=O)C(=O)NCc2ccccc2)cc1 (stereo not given)	3.29
